The record followed here is paper PMC3412276 (Molecular Microbiology, 2012).

The target in this assay is T1, TbPMI (phosphomannose isomerase) (Trypanosoma brucei, UniProt Q381V7).
T1 construct: gene Tb11.01.6410
T1 sequence (Q381V7 1-409): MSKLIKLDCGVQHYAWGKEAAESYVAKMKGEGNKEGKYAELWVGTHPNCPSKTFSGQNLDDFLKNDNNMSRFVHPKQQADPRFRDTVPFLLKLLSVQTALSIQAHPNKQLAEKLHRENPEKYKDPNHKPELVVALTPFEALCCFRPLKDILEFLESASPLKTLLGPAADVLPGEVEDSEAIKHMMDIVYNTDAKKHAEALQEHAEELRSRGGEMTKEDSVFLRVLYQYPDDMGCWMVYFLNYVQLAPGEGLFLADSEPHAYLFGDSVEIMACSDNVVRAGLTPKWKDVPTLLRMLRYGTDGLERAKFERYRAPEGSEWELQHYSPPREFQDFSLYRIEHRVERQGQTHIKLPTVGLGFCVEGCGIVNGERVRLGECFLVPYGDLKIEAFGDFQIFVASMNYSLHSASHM
The experiment in a line: HPAEC with pulsed amperiometric detection. The format is biochemical. As to conditions: 0.25 mM sugar-6P, 2 mM bis-tris propane pH 7.3, 2.5 mM MgCl2, 37°C, 15 min.

Consider `O=P(O)(O)OC[C@H]1OC(O)(CO)[C@@H](O)[C@@H]1O` (some centres unmarked) [Fru-6P], for which the “HPAEC with pulsed amperiometric detection” value (converted to Man-6P) is “to be able to convert Man-6P to Fru-6P and Fru-6P to Man-6P, as expected”.

As to `O=P(O)(O)OC[C@H]1OC(O)[C@@H](O)[C@@H](O)[C@@H]1O` (some centres unmarked) [Man-6P], under “converted to Fru-6P”, the “HPAEC with pulsed amperiometric detection” value was “to be able to convert Man-6P to Fru-6P and Fru-6P to Man-6P, as expected”.
